Test results published in PubChem BioAssay AID342 (DTP/NCI, 2004).
Where “and” joins values, the source holds several entries; their conditions need not be identical. Equal entries are not always repeated.

System: Swiss mice, Sarcoma 180 sc, mean tumor weight T/C
Test: NCI In Vivo Anticancer Drug Screen. Data for tumor model Sarcoma 180 (subcutaneous) in Swiss mice
Conditions: endpoint: mean tumor weight, higher = larger tumour
In short: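 Mice bearing transplanted tumors were treated with compound, and survival or tumor size was measured. Values are expressed as the treated-group measurement (T) divided by the vehicle-treated control measurement (C).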

[1] = dose: 20.0 mg/kg/injection, schedule: Q01DX007 (ip), vehicle: carboxymethylcellulose (CMC)
[2] = dose: 125.0 mg/kg/injection, schedule: Q01DX007 (ip), vehicle: saline

For `Cc1cc2nc(Cc3nc4cc(C)c(C)cc4[nH]3)[nH]c2cc1C`, the T/C [1] was 86 % of control, the T/C (dose: 40.0 mg/kg/injection, schedule: Q01DX007 (ip), vehicle: carboxymethylcellulose (CMC)) was 85 % of control and the T/C (dose: 60.0 mg/kg/injection, schedule: Q01DX007 (ip), vehicle: carboxymethylcellulose (CMC)) was 80 % of control and 81 % of control. For the same compound, the T/C (dose: 80.0 mg/kg/injection, schedule: Q01DX007 (ip), vehicle: carboxymethylcellulose (CMC)) was 102 % of control, the T/C (dose: 90.0 mg/kg/injection, schedule: Q01DX007 (ip), vehicle: carboxymethylcellulose (CMC)) was 67 % of control and the T/C (dose: 120.0 mg/kg/injection, schedule: Q01DX007 (ip), vehicle: carboxymethylcellulose (CMC)) was 122 % of control. For the same compound, the T/C (dose: 160.0 mg/kg/injection, schedule: Q01DX007 (ip), vehicle: carboxymethylcellulose (CMC)) was 77 % of control, the T/C (dose: 180.0 mg/kg/injection, schedule: Q01DX007 (ip), vehicle: carboxymethylcellulose (CMC)) was 89 % of control and the T/C (dose: 210.0 mg/kg/injection, schedule: Q01DX007 (ip), vehicle: carboxymethylcellulose (CMC)) was 61 % of control. The T/C (dose: 270.0 mg/kg/injection, schedule: Q01DX007 (ip), vehicle: carboxymethylcellulose (CMC)) was 77 % of control, the T/C (dose: 320.0 mg/kg/injection, schedule: Q01DX007 (ip), vehicle: carboxymethylcellulose (CMC)) was 90 % of control and 100 % of control and the T/C (dose: 478.0 mg/kg/injection, schedule: Q01DX007 (ip), vehicle: carboxymethylcellulose (CMC)) was 57 % of control. The T/C (dose: 717.0 mg/kg/injection, schedule: Q01DX007 (ip), vehicle: carboxymethylcellulose (CMC)) was 65 % of control.
For `CN(C)[C@@H]1C(=O)C(C(=O)NCNc2nc(=S)c3[nH]cnc3[nH]2)=C(O)[C@@]2(O)C(=O)C3=C(O)c4c(O)cccc4[C@@](C)(O)[C@H]3C[C@@H]12`, the T/C (dose: 25.0 mg/kg/injection, schedule: Q01DX007 (ip), vehicle: carboxymethylcellulose (CMC)) was 26 % of control and the T/C (dose: 50.0 mg/kg/injection, schedule: Q01DX007 (ip), vehicle: carboxymethylcellulose (CMC)) was 15 % of control.
`COc1cc(C(=O)CC2CCCCN2)ccc1O` (stereo not given) was tested, and the T/C (dose: 55.0 mg/kg/injection, schedule: Q01DX007 (ip), vehicle: saline) was 62 % of control, the T/C (dose: 83.0 mg/kg/injection, schedule: Q01DX007 (ip), vehicle: saline) was 120 % of control and the T/C [2] was 95 % of control and 96 % of control. For the same compound, the T/C (dose: 250.0 mg/kg/injection, schedule: Q01DX007 (ip), vehicle: saline) was 83 % of control.
For `CNNCc1ccc(C(=O)NC(C)C)cc1`, the T/C (dose: 100.0 mg/kg/injection, schedule: Q01DX007 (ip), vehicle: saline) was 26 % of control, the T/C (dose: 125.0 mg/kg/injection, schedule: Q01DX007 (ip), vehicle: carboxymethylcellulose (CMC)) was 36 % of control and the T/C (dose: 148.0 mg/kg/injection, schedule: Q01DX007 (ip), vehicle: saline) was 22 % of control. The T/C (dose: 222.0 mg/kg/injection, schedule: Q01DX007 (ip), vehicle: saline) was 16 % of control, the T/C (dose: 250.0 mg/kg/injection, schedule: Q01DX007 (ip), vehicle: carboxymethylcellulose (CMC)) was 15 % of control and the T/C (dose: 333.0 mg/kg/injection, schedule: Q01DX007 (ip), vehicle: saline) was 16 % of control. The T/C (dose: 500.0 mg/kg/injection, schedule: Q01DX007 (ip), vehicle: saline) was 8 % of control.
For `Nc1nc(SN=Nc2ccc(S(=O)(=O)O)cc2)c2[nH]cnc2n1`, the T/C (dose: 1.75 mg/kg/injection, schedule: Q01DX007 (ip), vehicle: other) was 104 % of control, the T/C (dose: 3.5 mg/kg/injection, schedule: Q01DX007 (ip), vehicle: other) was 80 % of control and the T/C (dose: 6.0 mg/kg/injection, schedule: Q01DX007 (ip), vehicle: other) was 65 % of control. For the same compound, the T/C (dose: 7.0 mg/kg/injection, schedule: Q01DX007 (ip), vehicle: other) was 46 % of control, the T/C (dose: 9.0 mg/kg/injection, schedule: Q01DX007 (ip), vehicle: other) was 57 % of control and the T/C (dose: 14.0 mg/kg/injection, schedule: Q01DX007 (ip), vehicle: other) was 18 % of control and 27 % of control and 33 % of control. The T/C (dose: 21.0 mg/kg/injection, schedule: Q01DX007 (ip), vehicle: other) was 1 % of control and 14 % of control.
With `CC(C)CC(C#N)C(N)=O` (stereo not given) the T/C (dose: 7.5 mg/kg/injection, schedule: Q01DX007 (ip), vehicle: methylcellulose (MC)) was 108 % of control and the T/C (dose: 30.0 mg/kg/injection, schedule: Q01DX007 (ip), vehicle: methylcellulose (MC)) was 96 % of control.
For `NCC(=O)O.[Zn+2]`, the T/C (dose: 1.25 mg/kg/injection, schedule: Q01DX007 (iv), vehicle: water) was 99 % of control, the T/C (dose: 2.5 mg/kg/injection, schedule: Q01DX007 (iv), vehicle: water) was 83 % of control and the T/C (dose: 5.0 mg/kg/injection, schedule: Q01DX007 (iv), vehicle: water) was 113 % of control. For the same compound, the T/C (dose: 10.0 mg/kg/injection, schedule: Q01DX007 (iv), vehicle: water) was 95 % of control.
With `NNc1nnc(NN)c2ccccc12` the T/C (dose: 31.25 mg/kg/injection, schedule: Q01DX007 (ip), vehicle: saline) was 167 % of control, the T/C (dose: 62.5 mg/kg/injection, schedule: Q01DX007 (ip), vehicle: saline) was 176 % of control and the T/C [2] was 119 % of control.
`O=C(O)CCC(=O)CCl` was tested, and the T/C (dose: 6.2 mg/kg/injection, schedule: Q01DX007 (ip), vehicle: saline) was 76 % of control, the T/C (dose: 9.3 mg/kg/injection, schedule: Q01DX007 (ip), vehicle: saline) was 57 % of control and the T/C (dose: 14.0 mg/kg/injection, schedule: Q01DX007 (ip), vehicle: saline) was 57 % of control. The T/C (dose: 21.0 mg/kg/injection, schedule: Q01DX007 (ip), vehicle: saline) was 46 % of control and 55 % of control and the T/C (dose: 30.0 mg/kg/injection, schedule: Q01DX007 (ip), vehicle: saline) was 31 % of control.
For `CC=C(/C(=C/C)c1ccc(O)cc1)c1ccc(O)cc1`, the T/C (dose: 15.0 mg/kg/injection, schedule: Q01DX007 (ip), vehicle: carboxymethylcellulose (CMC)) was 52 % of control, the T/C [1] was 42 % of control and the T/C (dose: 27.5 mg/kg/injection, schedule: Q#A X014 (ip), vehicle: carboxymethylcellulose (CMC)) was 40 % of control and 54 % of control. For the same compound, the T/C (dose: 30.0 mg/kg/injection, schedule: Q01DX007 (ip), vehicle: carboxymethylcellulose (CMC)) was 48 % of control, the T/C (dose: 44.0 mg/kg/injection, schedule: Q01DX007 (ip), vehicle: carboxymethylcellulose (CMC)) was 31 % of control and 40 % of control and the T/C (dose: 66.0 mg/kg/injection, schedule: Q01DX007 (ip), vehicle: carboxymethylcellulose (CMC)) was 35 % of control. For the same compound, the T/C (dose: 80.0 mg/kg/injection, schedule: Q01DX007 (sc), vehicle: carboxymethylcellulose (CMC)) was 58 % of control, the T/C (dose: 80.0 mg/kg/injection, schedule: Q01DX007 (sc), vehicle: steriod suspending solution) was 14 % of control and the T/C (dose: 94.0 mg/kg/injection, schedule: Q#A X014 (ip), vehicle: carboxymethylcellulose (CMC)) was 50 % of control and 69 % of control. For the same compound, the T/C (dose: 100.0 mg/kg/injection, schedule: Q01DX007 (ip), vehicle: carboxymethylcellulose (CMC)) was 52 % of control, the T/C (dose: 124.0 mg/kg/injection, schedule: Q01DX007 (ip), vehicle: carboxymethylcellulose (CMC)) was 104 % of control and the T/C (dose: 150.0 mg/kg/injection, schedule: Q01DX007 (ip), vehicle: carboxymethylcellulose (CMC)) was 39 % of control. For the same compound, the T/C (dose: 160.0 mg/kg/injection, schedule: Q01DX007 (sc), vehicle: carboxymethylcellulose (CMC)) was 52 % of control, the T/C (dose: 160.0 mg/kg/injection, schedule: Q01DX007 (sc), vehicle: steriod suspending solution) was 23 % of control and the T/C (dose: 188.0 mg/kg/injection, schedule: Q01DX007 (ip), vehicle: carboxymethylcellulose (CMC)) was 84 % of control. The T/C (dose: 225.0 mg/kg/injection, schedule: Q01DX007 (ip), vehicle: carboxymethylcellulose (CMC)) was 28 % of control and 31 % of control, the T/C (dose: 277.0 mg/kg/injection, schedule: Q01DX007 (ip), vehicle: carboxymethylcellulose (CMC)) was 71 % of control and the T/C (dose: 281.0 mg/kg/injection, schedule: Q01DX007 (ip), vehicle: carboxymethylcellulose (CMC)) was 63 % of control. The T/C (dose: 320.0 mg/kg/injection, schedule: Q01DX007 (sc), vehicle: carboxymethylcellulose (CMC)) was 30 % of control, the T/C (dose: 320.0 mg/kg/injection, schedule: Q01DX007 (sc), vehicle: steriod suspending solution) was 23 % of control and the T/C (dose: 333.0 mg/kg/injection, schedule: Q01DX007 (ip), vehicle: carboxymethylcellulose (CMC)) was 29 % of control. For the same compound, the T/C (dose: 422.0 mg/kg/injection, schedule: Q01DX007 (ip), vehicle: carboxymethylcellulose (CMC)) was 58 % of control and 65 % of control, the T/C (dose: 500.0 mg/kg/injection, schedule: Q01DX007 (ip), vehicle: carboxymethylcellulose (CMC)) was 24 % of control and 38 % of control and the T/C (dose: 630.0 mg/kg/injection, schedule: Q01DX007 (ip), vehicle: carboxymethylcellulose (CMC)) was 63 % of control. The T/C (dose: 640.0 mg/kg/injection, schedule: Q01DX007 (sc), vehicle: carboxymethylcellulose (CMC)) was 47 % of control, the T/C (dose: 640.0 mg/kg/injection, schedule: Q01DX007 (sc), vehicle: steriod suspending solution) was 17 % of control and the T/C (dose: 750.0 mg/kg/injection, schedule: Q01DX007 (ip), vehicle: carboxymethylcellulose (CMC)) was 35 % of control. For the same compound, the T/C (dose: 945.0 mg/kg/injection, schedule: Q01DX007 (ip), vehicle: carboxymethylcellulose (CMC)) was 44 % of control.
